Reference: patent US20230301969A1, “DOSING SCHEDULE FOR A METHOD OF TREATMENT WITH DHODH INHIBITORS” (Bayer Aktiengesellschaft, priority 2020, published 2023)
Entries after “also recorded” stand apart in the source; their conditions may differ. Like-named read-outs stand apart in the source and are kept apart here.

Experiments:
[1] = tested on: colorectal cancer xenograft model HT29; experiment: Colorectal cancer HT29 subcutaneous xenograft, tumor volume; assay type: in vivo, mice; settings: start day 9
Method: (§1) Tumor cells were injected subcutaneously into the flank of the mice. Treatment was initiated at a predefined tumor size after cell inoculation. BAY 2402234 was applied orally (p.o.) at various dose levels and schedules (daily or intermittent). BAY 2402234 was prepared in solution in PEG400/ETOH 9/1. Animal body weight during the study was monitored at least twice weekly. Subcutaneous tumors were measured with a caliper (length and width) at least twice a week, depending on the doubling time of the tumor. Values are presented as volume. Efficacy was calculated on a specific day according to the formula: T/C (treatment/control ratio)=(mean tumor volume from the treated group/mean tumor volume from the vehicle group). Tumor volume was calculated using (width^2×length)/2.
(§2) Colorectal cancer cells were inoculated in the flank of mice and 9 days after implantation tumors were measured and animals were randomized at an average tumor volume of around 80 mm^3. Treatment with DHODH Inhibitor BAY2402234 was started at time of randomization. Either daily dosing of 5 mg/kg or 10 mg/kg at a 5 days on/2 days off schedule or 5 mg/kg at a 5 days on 2 days off was used and the drug was given orally in 90/10 PEG400/EtOH formulation. The daily dosing sums up to a total weekly dose of 35 mg/kg, while the 5 days on/2 days off schedule sums up to a 50 or a 25 mg/kg weekly dose respectively.

[2] = Body weight of animals in the HT29 xenograft model (tolerability); assay type: in vivo, mice; settings: for body weight / tolerability: 5 mg/kg p.o. 5 days on/2 days off, course of the experiment
Method: as §1, §2

[3] = tested on: Mantle cell lymphoma xenograft model Z138; experiment: Mantle cell lymphoma Z138 subcutaneous xenograft, tumor volume; assay type: in vivo, SCID mice; settings: start day 20
Method: as §1
(§3) Mantle Cell Lymphoma Z138 cells were inoculated in the flank of SCID mice and 20 days after implantation tumors were measured and animals were randomized at an average tumor volume of around 100 mm^3. Treatment with DHODH Inhibitor BAY 2402234 was started at time of randomization. Either daily dosing of 5 mg/kg or 10 mg/kg at a 4 days on/3 days off schedule or 5 mg/kg at a 5 days on 2 days off was used and the drug was given orally in 90/10 PEG400/EtOH formulation. The daily dosing sums up to a total weekly dose of 35 mg/kg, while the 4 days on/3 days off schedule sums up to a 40 mg/kg weekly dose and the 5 days on 2 days off sums up to 25 mg/kg weekly dose.

[4] = mouse, in vivo
Method: as §3, with “AML THP1” for “Mantle Cell Lymphoma Z138”, “16” for “20”, “BAY2402234” for “BAY 2402234”, “schedule” for “schedule or 5 mg/kg at a 5 days on 2 days off”, “formulation. […]” for “formulation.”, “weekly” for “weekly dose and the 5 days on 2 days off sums up to 25 mg/kg weekly”

[5] = tested on: acute myeloid leukemia xenograft model THP1; experiment: AML THP1 subcutaneous xenograft, tumor volume; assay type: in vivo, SCID mice; settings: start day 16, 7 days of treatment
Method: as §1
as §3, with “AML THP1” for “Mantle Cell Lymphoma Z138”, “16” for “20”, “BAY2402234” for “BAY 2402234”, “schedule” for “schedule or 5 mg/kg at a 5 days on 2 days off”, “formulation. […]” for “formulation.”, “weekly” for “weekly dose and the 5 days on 2 days off sums up to 25 mg/kg weekly”

solid cancer = settings: weekly doses or 5 days on 23 days off schedule, cited from earlier work
[6] = 5 mg/kg p.o. 5 days on/2 days off (25 mg/kg weekly)
[7] = 5 mg/kg p.o. daily (35 mg/kg weekly)
[8] = 10 mg/kg p.o. 4 days on/3 days off (40 mg/kg weekly)

Row | Compound | development of tumor volume / efficacy [1, 6] | development of tumor volume / efficacy ([1]; 5 mg/kg p.o. 5 days on/2 days off (25 mg/kg weekly), listed as BAY2402234) | development of tumor volume / efficacy [1, 7] | development of tumor volume / efficacy ([1]; 5 mg/kg p.o. daily (35 mg/kg weekly), listed as BAY2402234) | development of tumor volume / efficacy ([1]; 10 mg/kg p.o. 5 days on/2 days off (50 mg/kg weekly)) | development of tumor volume / efficacy ([1]; 10 mg/kg p.o. 5 days on/2 days off (50 mg/kg weekly), listed as BAY2402234) | body weight / tolerability [2] | body weight / tolerability ([2]; listed as BAY2402234) | body weight loss ([2]; 5 mg/kg p.o. daily, at experiments end) | body weight loss ([2]; 10 mg/kg p.o. 5 days on/2 days off, at the end of the experiment) | development of tumor volume / efficacy [3, 6] | development of tumor volume / efficacy [3, 7] | development of tumor volume / efficacy [3, 8] | dose relative to maximal tolerated dose [4] | development of tumor volume / efficacy [5, 7] | development of tumor volume / efficacy [5, 8] | clinical activity in solid cancer indications (solid cancer) | clinical activity in solid cancer indications (solid cancer; listed as Brequinar sodium)
1 | CCn1c(CO)nn(-c2cc(O[C@@H](C)C(F)(F)F)c(C(=O)Nc3c(F)cccc3Cl)cc2F)c1=O [BAY 2402234, N-(2-chloro-6-fluorophenyl)-4-[4-ethyl-3-(hydroxymethyl)-5-oxo-4,5-dihydro-1H-1,2,4-triazol-1-yl]-5-fluoro-2-{[(2S)-1,1,1-trifluoropropan-2-yl]oxy}benzamide] | tumor growth inhibition | tumor growth delay | tumor growth inhibition | tumor growth delay | tumor growth inhibition; also recorded: slightly stronger | tumor growth delay; also recorded: slightly more efficacious | relative constant bodyweight | best tolerated | above 10% | around 4% | shrinkage of the tumors; also recorded: tumor regression | shrinkage of the tumors; also recorded: tumor regression | shrinkage of the tumors; also recorded: tumor regression | close to the maximal tolerated dose | stable disease | stable disease | – | –
2 | Cc1c(-c2ccc(-c3ccccc3F)cc2)nc2ccc(F)cc2c1C(=O)O [Brequinar, 6-fluoro-2-(2′-fluoro-[1,1′-biphenyl]-4-yl)-3-methylquinoline-4-carboxylic acid] | – | – | – | – | – | – | – | – | – | – | – | – | – | – | – | – | failed to show sufficient clinical activity | ineffective
